target: MCH receptor (Homo sapiens, UniProt Q99705); test: High throughput functional screening FLIPR/FDSS6000: inhibition of MCH-evoked intracellular Ca2+ changes; assay type: cell-based; details: class by percent of control at 10^-7 M or IC50
Outline: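 Constitutively active non-endogenous MCH-R cells; Fluo4-AM 4 μM, 2.5 mM probenecid, 1 hr, 37° C; cpd 3 min, 37° C; MCH 50 nM (antagonist mode); kinetic Ca2+ read Ex488/Em530, 290 s.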

COc1cc(NC(=S)NC[C@H]2CC[C@@H](Nc3nc(N(C)C)c4ccccc4n3)CC2)c(OC)cc1Cl [compound 794] was tested, and the class was 3 (Class 3: The value of percent of control at 10^−7 M was more than 60% or the value of IC50 was more than 200 nM.).
CN(C)c1nc(N[C@H]2CC[C@@H](CNC(=S)NCCCCc3ccccc3)CC2)nc2ccccc12 [compound 795] was tested, and the class was 3 (Class 3: The value of percent of control at 10^−7 M was more than 60% or the value of IC50 was more than 200 nM.).
CN(C)c1nc(N[C@H]2CC[C@@H](CNC(=S)Nc3ccc(C(C)(C)C)cc3)CC2)nc2ccccc12 [compound 796] was tested, and the class was 3 (Class 3: The value of percent of control at 10^−7 M was more than 60% or the value of IC50 was more than 200 nM.).
For CN(C)c1nc(N[C@H]2CC[C@@H](CNC(=S)Nc3cc(Cl)ccc3F)CC2)nc2ccccc12 [compound 797, N-(5-choloro-2-fluorophenyl)-N′-[(cis-4-{[4-(dimethylamino)-quinazolin-2-yl]amino}cyclohexyl)methyl]thiourea], the class was 3 (Class 3: The value of percent of control at 10^−7 M was more than 60% or the value of IC50 was more than 200 nM.).

same assay, conditions: class by percent of control at 10^-7 M or by IC50; read-out: class

First: CN(C)c1nc(N[C@H]2CC[C@@H](CNC(=S)NCC3CC3)CC2)nc2ccccc12 [compound 800]
Second: CN(C)c1nc(N[C@H]2CC[C@@H](CNC(=S)NCCN3CCOCC3)CC2)nc2ccccc12 [compound 808]
The IC50 of the first is lower: 50 to 200 nM for the first, over 200 nM for the second.

CCOC(=O)c1c(NC(=S)NC[C@H]2CC[C@@H](Nc3nc(N(C)C)c4ccccc4n3)CC2)sc2c1CCCC2 [compound 801, ethyl 2-[({[(cis-4-{[4-(dimethylamino)quinazolin-2-yl]amino}cyclohexyl)methyl]amino}carbonothioyl)amino]-4.5.6.7-tetrahydro-1-benzothiophene-3-carboxylate] and COC(=O)c1sccc1NC(=S)NC[C@H]1CC[C@@H](Nc2nc(N(C)C)c3ccccc3n2)CC1 [compound 802] cannot be ordered by IC50: over 200 nM for the first, over 200 nM for the second.

CN(C)c1nc(N[C@H]2CC[C@@H](CNC(=S)Nc3ccc(F)cc3Br)CC2)nc2ccccc12 [compound 803] and CN(C)c1nc(N[C@H]2CC[C@@H](CNC(=S)Nc3ccc(F)c(Cl)c3)CC2)nc2ccccc12 [compound 804] cannot be ordered by IC50: over 200 nM for the first, over 200 nM for the second.

CCCCc1ccc(NC(=S)NC[C@H]2CC[C@@H](Nc3nc(N(C)C)c4ccccc4n3)CC2)c(C)c1 [compound 805] and CCN(CC)c1ccc(NC(=S)NC[C@H]2CC[C@@H](Nc3nc(N(C)C)c4ccccc4n3)CC2)cc1 [compound 811] cannot be ordered by IC50: over 200 nM for the first, over 200 nM for the second.

CN(C)c1ccc(NC(=S)NC[C@H]2CC[C@@H](Nc3nc(N(C)C)c4ccccc4n3)CC2)cc1 [compound 806] and CN(C)c1nc(N[C@H]2CC[C@@H](CNC(=S)Nc3ccc(-n4cccn4)cc3)CC2)nc2ccccc12 [compound 814] cannot be ordered by IC50: over 200 nM for the first, over 200 nM for the second.

CN(C)c1nc(N[C@H]2CC[C@@H](CNC(=S)Nc3cccnc3)CC2)nc2ccccc12 [compound 809] and CN(C)c1nc(N[C@H]2CC[C@@H](CNC(=S)Nc3ccc(-c4cnco4)cc3)CC2)nc2ccccc12 [compound 818] cannot be ordered by IC50: over 200 nM for the first, over 200 nM for the second.

CN(C)c1nc(N[C@H]2CC[C@@H](CNC(=S)NCCCN3CCOCC3)CC2)nc2ccccc12 [compound 810] and CN(C)c1nc(N[C@H]2CC[C@@H](CNC(=S)NCCN3CCCCC3)CC2)nc2ccccc12 [compound 813] cannot be ordered by IC50: over 200 nM for the first, over 200 nM for the second.

CN(C)c1nc(N[C@H]2CC[C@@H](CNC(=S)Nc3ccc(/N=N/c4ccccc4)cc3)CC2)nc2ccccc12 [compound 812] and CN(C)c1nc(N[C@H]2CC[C@@H](CNC(=S)Nc3ccc(Oc4ccccc4)nc3)CC2)nc2ccccc12 [compound 821] cannot be ordered by IC50: over 200 nM for the first, over 200 nM for the second.

CN(C)c1nc(N[C@H]2CC[C@@H](CNC(=S)Nc3cccc4nsnc34)CC2)nc2ccccc12 [compound 815] and CN(C)c1nc(N[C@H]2CC[C@@H](CNC(=S)Nc3ccc4nsnc4c3)CC2)nc2ccccc12 [compound 816] cannot be ordered by IC50: over 200 nM for the first, over 200 nM for the second.

Compared with Cc1noc(C)c1NC(=S)NC[C@H]1CC[C@@H](Nc2nc(N(C)C)c3ccccc3n2)CC1 [compound 817], Cc1onc(-c2ccccc2)c1NC(=S)NC[C@H]1CC[C@@H](Nc2nc(N(C)C)c3ccccc3n2)CC1 [compound 819] is lower in IC50: over 200 nM for the first, 50 to 200 nM for the second.

CN(C)c1nc(N[C@H]2CC[C@@H](CNC(=S)Nc3ccc(N4CCOCC4)nc3)CC2)nc2ccccc12 [compound 820] and CN(C)c1nc(N[C@H]2CC[C@@H](NC(=O)Nc3ccc4c(c3)CCC4)CC2)nc2ccccc12 [compound 839] cannot be ordered by IC50: over 200 nM for the first, over 200 nM for the second.

Compared with CN(C)c1nc(N[C@H]2CC[C@@H](NC(=O)Nc3ccc(F)cc3[N+](=O)[O-])CC2)nc2ccccc12 [compound 822, N-(cis-4-{[4-(dimethylamino)quinazolin-2-yl]amino}cyclohexyl)-N′-(4-fluoro-2-nitrophenyl)urea], COc1ccc(NC(=O)N[C@H]2CC[C@@H](Nc3nc(N(C)C)c4ccccc4n3)CC2)c([N+](=O)[O-])c1 [compound 828] is higher in IC50: 50 to 200 nM for the first, over 200 nM for the second.

Compared with CN(C)c1nc(N[C@H]2CC[C@@H](NC(=O)Nc3ccc(F)cc3C(F)(F)F)CC2)nc2ccccc12 [compound 823], Cc1ccc(F)cc1NC(=O)N[C@H]1CC[C@@H](Nc2nc(N(C)C)c3ccccc3n2)CC1 [compound 838, N-(cis-4-{[4-(dimethylamino)quinazolin-2-yl]amino}cyclohexyl)-N′-(5-fluoro-2-methylphenyl)urea] is lower in IC50: over 200 nM for the first, 50 to 200 nM for the second. The second is the more potent here.

First: CN(C)c1nc(N[C@H]2CC[C@@H](NC(=O)NCc3ccc(F)cc3)CC2)nc2ccccc12 [compound 824, N-(cis-4-{[4-(dimethylamino)quinazolin-2-yl]amino}cyclohexyl)-N′-(4-fluorobenzyl)urea]
Second: Cc1ccc(CNC(=O)N[C@H]2CC[C@@H](Nc3nc(N(C)C)c4ccccc4n3)CC2)cc1 [compound 830, N-(cis-4-{[4-(dimethylamino)quinazolin-2-yl]amino}cyclohexyl)-N′-(4-methylbenzyl)urea]
The IC50 of the first is lower: under 50 nM for the first, 50 to 200 nM for the second. The first is the more potent here.

CCCCCCCOc1ccc(NC(=O)N[C@H]2CC[C@@H](Nc3nc(N(C)C)c4ccccc4n3)CC2)cc1 [compound 825] and CCCCOc1ccc(NC(=O)N[C@H]2CC[C@@H](Nc3nc(N(C)C)c4ccccc4n3)CC2)cc1 [compound 831] cannot be ordered by IC50: over 200 nM for the first, over 200 nM for the second.

Compared with CN(C)c1nc(N[C@H]2CC[C@@H](NC(=O)Nc3ccc(I)cc3)CC2)nc2ccccc12 [compound 826, N-(cis-4-{[4-(dimethylamino)quinazolin-2-yl]amino}cyclohexyl)-N′-(4-iodophenyl)urea], COC(=O)c1ccc(NC(=O)N[C@H]2CC[C@@H](Nc3nc(N(C)C)c4ccccc4n3)CC2)cc1 [compound 845] is higher in IC50: 50 to 200 nM for the first, over 200 nM for the second.

Going from COc1ccc(NC(=O)N[C@H]2CC[C@@H](Nc3nc(N(C)C)c4ccccc4n3)CC2)c(C)c1 [compound 827, N-(cis-4-{[4-(dimethylamino)quinazolin-2-yl]amino}cyclohexyl)-N′-(4-methoxy-2-methylphenyl)urea] to Cc1ccc(Cl)cc1NC(=O)N[C@H]1CC[C@@H](Nc2nc(N(C)C)c3ccccc3n2)CC1 [compound 836], the IC50 rises from under 50 nM to over 200 nM. The first is the more potent here.

Cc1ccc(NC(=O)N[C@H]2CC[C@@H](Nc3nc(N(C)C)c4ccccc4n3)CC2)cc1[N+](=O)[O-] [compound 829] and CN(C)c1nc(N[C@H]2CC[C@@H](NC(=O)Nc3cc(Cl)ccc3[N+](=O)[O-])CC2)nc2ccccc12 [compound 837] cannot be ordered by IC50: over 200 nM for the first, over 200 nM for the second.

CCCCc1ccc(NC(=O)N[C@H]2CC[C@@H](Nc3nc(N(C)C)c4ccccc4n3)CC2)cc1 [compound 832] and CN(C)c1nc(N[C@H]2CC[C@@H](NC(=O)Nc3ccc(-c4ccccc4)cc3)CC2)nc2ccccc12 [compound 833] cannot be ordered by IC50: over 200 nM for the first, over 200 nM for the second.

Compared with COc1cc(OC)c(NC(=O)N[C@H]2CC[C@@H](Nc3nc(N(C)C)c4ccccc4n3)CC2)cc1Cl [compound 834, N-(5-chloro-2,4-dimethoxyphenyl)-N′-(cis-4-{[4-(dimethylamino)quinazolin-2-yl]amino}cyclohexyl)urea], COc1ccc(Cl)cc1NC(=O)N[C@H]1CC[C@@H](Nc2nc(N(C)C)c3ccccc3n2)CC1 [compound 835] is higher in IC50: under 50 nM for the first, over 200 nM for the second. The first is the more potent here.

Compared with CN(C)c1nc(N[C@H]2CC[C@@H](NC(=O)NC3c4ccccc4-c4ccccc43)CC2)nc2ccccc12 [compound 840, N-(cis-4-{[4-(dimethylamino)quinazolin-2-yl]amino}cyclohexyl)-N′-9H-fluoren-9-ylurea], CN(C)c1nc(N[C@H]2CC[C@@H](NC(=O)NC(c3ccccc3)c3ccccc3)CC2)nc2ccccc12 [compound 844, N-(cis-4-{[4-(dimethylamino)quinazolin-2-yl]amino}cyclohexyl)-N′-(diphenylmethyl)urea] is lower in IC50: over 200 nM for the first, under 50 nM for the second. The second is the more potent here.

CN(C)c1nc(N[C@H]2CC[C@@H](NC(=O)NC3c4ccccc4-c4ccccc43)CC2)nc2ccccc12 [compound 841, N-(cis-4-{[4-(dimethylamino)quinazolin-2-yl]amino}cyclonexyl)-N′-9H-fluoren-9-ylurea] and CN(C)c1nc(N[C@H]2CC[C@@H](NC(=O)NCCc3ccccc3)CC2)nc2ccccc12 [compound 842, N-(cis-4-{[4-(dimethylamino)quinazolin-2-yl]amino}cyclonexyl)-N′-(2-phenylethyl)urea] fall in the same range of IC50: 50 to 200 nM for the first, 50 to 200 nM for the second.

First: CN(C)c1nc(N[C@H]2CC[C@@H](NC(=O)NC3CCCC3)CC2)nc2ccccc12 [compound 843, N-cyclophenyl-N′-(cis-4-{[4-(dimethylamino)quinazolin-2-yl]amino}cyclohexyl)urea]
Second: CN(C)c1nc(N[C@H]2CC[C@@H](NC(=O)OCC(C)(C)C)CC2)nc2ccccc12 [compound 847]
The IC50 of the first is lower: 50 to 200 nM for the first, over 200 nM for the second.

Compared with CN(C)c1nc(N[C@H]2CC[C@@H](NC(=O)OCCOCc3ccccc3)CC2)nc2ccccc12 [compound 846], COc1cc(COC(=O)N[C@H]2CC[C@@H](Nc3nc(N(C)C)c4ccccc4n3)CC2)c([N+](=O)[O-])cc1OC [compound 848] is lower in IC50: 50 to 200 nM for the first, under 50 nM for the second. The second is the more potent here.

From patent publication US20070010671A1, “Novel quinazoline derivatives and methods of treatment related to the use thereof” (priority 2003, published 2007)
